Experimental data taken from ChEMBL document CHEMBL1201862, “PubChem BioAssay data set” (2004).
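Each compound was tested at five concentrations against cells in 96-well plates for 48 hours. GI50 is the concentration that inhibits growth by half.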 Activity calls are given as the source filed them. No stated cut-off is given here; in the data, active = GI50 up to about 1.1 µM and inactive = higher.

Assays:
Assay in all cases: inhibition of tumour cell growth, NCI panel, 48 h
SNB-75 = test system: SNB-75
M19-MEL = test system: M19-MEL
SN12C = test system: SN12C
OVCAR-8 = test system: OVCAR-8
RPMI-8226 = test system: RPMI-8226
786-0 = test system: 786-0
UACC-62 = test system: UACC-62
HT-29 = test system: HT-29
HL-60 = test system: HL-60
SK-MEL-28 = test system: SK-MEL-28
EKVX = test system: EKVX
KM12 = test system: KM12
UO-31 = test system: UO-31
SF-268 = test system: SF-268
K562 = test system: K562
NCI-H226 = test system: NCI-H226
CAKI-1 = test system: CAKI-1
SK-MEL-5 = test system: SK-MEL-5
NCI/ADR-RES = test system: NCI/ADR-RES
Hs-578T = test system: Hs-578T

Measured: GI50

O=c1[nH]c(=O)n(C2CC(O)C(O)C(CO)O2)cc1F (stereo not given)
inactive: SNB-75 > 100 µM | M19-MEL > 100 µM | SN12C > 100 µM | OVCAR-8 > 100 µM | RPMI-8226 > 100 µM | 786-0 > 100 µM | UACC-62 > 100 µM | HT-29 > 100 µM | HL-60 > 100 µM | SK-MEL-28 > 100 µM | EKVX > 100 µM | KM12 > 100 µM | UO-31 > 100 µM | SF-268 > 100 µM | K562 > 100 µM | NCI-H226 > 100 µM

COc1ccc2cc(C(=O)c3ccccc3C(=O)O)ccc2c1
inactive: SNB-75 > 100 µM | CAKI-1 > 100 µM | M19-MEL > 100 µM | SN12C > 100 µM | OVCAR-8 > 100 µM | 786-0 > 100 µM | SK-MEL-5 > 100 µM | UACC-62 > 100 µM | HT-29 > 100 µM | HL-60 > 100 µM | SK-MEL-28 > 100 µM | EKVX > 100 µM | KM12 > 100 µM | UO-31 > 100 µM | SF-268 > 100 µM | K562 > 100 µM | NCI-H226 > 100 µM

OCCNC1c2cc(Cl)ccc2-c2c(Cl)cc(Cl)cc21 (stereo not given)
inactive: SNB-75 37.9 µM | CAKI-1 30.3 µM | NCI/ADR-RES 45.9 µM | SN12C 25.5 µM | OVCAR-8 28.6 µM | RPMI-8226 33.1 µM | 786-0 27.3 µM | SK-MEL-5 > 100 µM | UACC-62 34 µM | HT-29 31.5 µM | HL-60 25.6 µM | SK-MEL-28 92.3 µM | EKVX 11.6 µM | KM12 32.7 µM | UO-31 3.37 µM | SF-268 38.5 µM | K562 33 µM | NCI-H226 > 100 µM | Hs-578T 33.1 µM

CCC1(N=[N+]=[N-])C(=O)c2ccccc2N(C)C1=O (stereo not given)
inactive: SNB-75 > 100 µM | CAKI-1 > 100 µM | M19-MEL > 100 µM | SN12C > 100 µM | OVCAR-8 > 100 µM | 786-0 > 100 µM | SK-MEL-5 > 100 µM | UACC-62 > 100 µM | HT-29 > 100 µM | HL-60 > 100 µM | SK-MEL-28 > 100 µM | EKVX > 100 µM | KM12 > 100 µM | UO-31 > 100 µM | SF-268 > 100 µM | K562 > 100 µM

O=C(O)c1ccccc1/C=C1\Cc2ccccc2C1=O
inactive: SNB-75 > 100 µM | CAKI-1 > 100 µM | NCI/ADR-RES > 100 µM | SN12C > 100 µM | OVCAR-8 > 100 µM | RPMI-8226 71.4 µM | 786-0 > 100 µM | SK-MEL-5 47.2 µM | UACC-62 > 100 µM | HT-29 38.2 µM | HL-60 > 100 µM | SK-MEL-28 > 100 µM | EKVX > 100 µM | KM12 > 100 µM | UO-31 > 100 µM | SF-268 > 100 µM | K562 > 100 µM | NCI-H226 > 100 µM | Hs-578T > 100 µM

O=C1C=C(Br)c2c(Br)sc(Br)c21
inactive: SNB-75 18.3 µM | CAKI-1 12 µM | NCI/ADR-RES 12.6 µM | SN12C 12.9 µM | OVCAR-8 3.9 µM | RPMI-8226 2.99 µM | 786-0 2.53 µM | SK-MEL-5 16.3 µM | UACC-62 14 µM | HT-29 13.5 µM | HL-60 5.36 µM | SK-MEL-28 18.9 µM | EKVX 18 µM | KM12 17 µM | UO-31 3.4 µM | SF-268 18.5 µM | K562 4.67 µM | NCI-H226 32.5 µM | Hs-578T 30.2 µM

CN(C)c1ccc2c(=O)c3ccccc3oc2n1
inactive: SNB-75 > 100 µM | CAKI-1 > 100 µM | M19-MEL > 100 µM | SN12C > 100 µM | OVCAR-8 > 100 µM | RPMI-8226 > 100 µM | 786-0 > 100 µM | SK-MEL-5 38.6 µM | UACC-62 > 100 µM | HL-60 > 100 µM | SK-MEL-28 > 100 µM | EKVX 35 µM | KM12 69.7 µM | UO-31 69.2 µM | SF-268 > 100 µM | K562 > 100 µM

CC(=O)NC1C(=O)CC(c2ccccc2)N(C)C1c1ccccc1 (stereo not given)
inactive: SNB-75 > 100 µM | CAKI-1 > 100 µM | M19-MEL > 100 µM | SN12C > 100 µM | OVCAR-8 > 100 µM | 786-0 > 100 µM | SK-MEL-5 > 100 µM | UACC-62 > 100 µM | HT-29 78 µM | HL-60 > 100 µM | SK-MEL-28 > 100 µM | EKVX > 100 µM | KM12 > 100 µM | UO-31 94.8 µM | SF-268 > 100 µM | K562 > 100 µM | NCI-H226 > 100 µM

CCCCCCCCCCCC(=O)OCC1OC(n2cc(F)c(=O)[nH]c2=O)C(NC(=O)OCc2ccccc2)C(OC(=O)CCCCCCCCCCC)C1O (stereo not given)
inactive: SNB-75 > 100 µM | CAKI-1 > 100 µM | M19-MEL > 100 µM | SN12C > 100 µM | OVCAR-8 > 100 µM | RPMI-8226 > 100 µM | 786-0 > 100 µM | SK-MEL-5 > 100 µM | UACC-62 > 100 µM | HT-29 > 100 µM | SK-MEL-28 > 100 µM | EKVX > 100 µM | KM12 > 100 µM | UO-31 > 100 µM | SF-268 > 100 µM | K562 > 100 µM | NCI-H226 > 100 µM

COc1ccc(NC(=O)C(=O)Cc2nc3ccc([N+](=O)[O-])cc3nc2O)c(OC)c1
inactive: SNB-75 > 100 µM | CAKI-1 > 100 µM | M19-MEL > 100 µM | 786-0 > 100 µM | SK-MEL-5 > 100 µM | UACC-62 > 100 µM | HT-29 > 100 µM | HL-60 > 100 µM | SK-MEL-28 > 100 µM | EKVX > 100 µM | KM12 > 100 µM | UO-31 > 100 µM | K562 > 100 µM | NCI-H226 > 100 µM

Cc1cc(-c2nc3cccc(O)c3s2)ccc1N
inactive: SNB-75 > 100 µM | CAKI-1 20.8 µM | NCI/ADR-RES 21.1 µM | SN12C 39.9 µM | OVCAR-8 24.2 µM | RPMI-8226 45.2 µM | 786-0 34.1 µM | SK-MEL-5 19.3 µM | UACC-62 16.3 µM | HT-29 36.3 µM | HL-60 22.3 µM | SK-MEL-28 51.4 µM | EKVX 15.7 µM | KM12 10.3 µM | UO-31 4.43 µM | SF-268 17.6 µM | K562 45.4 µM | NCI-H226 45.1 µM | Hs-578T 5.75 µM

CN(C)c1ccc(/C=C2\CNC/C(=C\c3ccc(N(C)C)cc3)C2=O)cc1
inactive: SNB-75 11.1 µM | M19-MEL 18.4 µM | SN12C 26.5 µM | OVCAR-8 24.2 µM | RPMI-8226 54.6 µM | 786-0 16.8 µM | SK-MEL-5 65.5 µM | UACC-62 34.5 µM | HT-29 10.9 µM | SK-MEL-28 22.8 µM | EKVX > 100 µM | KM12 > 10 µM | UO-31 36.2 µM | SF-268 > 10 µM | K562 24.2 µM | NCI-H226 32.7 µM
